Measurements taken from patent publication US20020019420A1, “Methods and compositions for treating gastric disorders using optically pure (+)-pantoprazole” (Sepracor Inc., priority 1993, published 2002).
Like-named read-outs stand apart in the source and are kept apart here.

Key:
[1] = test system: endogenous acid secretion; assay: reduction of endogenous acid secretion in pylorus-ligated rats; assay type: in vivo, rat
Excerpt: This may increase pantoprazole's selectivity for the acid secreting parietal cells, where low pH conditions exist in the intracellular canaliculi. In intact animals, pantoprazole is active in inhibiting gastric acid secretion in both rats and dogs. Specifically, the intravenous and oral doses required to reduce endogenous acid secretion in pylorus-ligated rats by 50% are in the 1-3 μmole/kg range. […] Racemic pantoprazole is also effective at doses less than 5 μmole/kg in inhibiting exogenously stimulated acid. secretion induced by a variety of agonists, indicating general activity of the drug in inhibiting acid secretion.

[2] = acute toxicity LD50 in mice; assay type: in vivo
[3] = patients with duodenal ulcers, after four weeks of 20 to 80 mg per day; cited from earlier work
[4] = rats, two year study; cited from earlier work
[5] = neutral and moderately acidic conditions; cited from earlier work
[6] = test system: endogenous acid secretion; conditions: pylorus-ligated rats, cited from earlier work
[7] = test system: exogenously stimulated acid secretion; conditions: variety of agonists; cited from earlier work
[8] = test system: hepatic drug metabolizing enzyme systems; conditions: intact rats and rat microsomal enzyme preparations; cited from earlier work
[9] = humans, short-term administration; cited from earlier work
[10] = rat, cited from earlier work
[11] = cited from earlier work
[12] = test system: beta-adrenergic; conditions: L-form versus D-enantiomer; cited from earlier work
[13] = weak acid; cited from earlier work

COc1ccnc(C[S+]([O-])c2nc3ccc(OC(F)F)cc3[nH]2)c1OC (racemic) [racemic pantoprazole]
calculated oral/intravenous (p.o./i.v.) ratio of the 50% doses [1]: approximately 2
p.o./i.v. LD50 ratio [2]: approximately 2
ulcer healing [3]: 90-100%
finding in carcinogenicity study [4]: hepatocellular neoplasia
chemical stability compared with omeprazole [5]: more chemically stable
intravenous dose required to reduce endogenous acid secretion by 50% ([6]; intravenous): 1 to 3 µmol/kg
oral dose required to reduce endogenous acid secretion by 50% ([6]; oral): 1 to 3 µmol/kg
effective dose inhibiting exogenously stimulated acid secretion [7]: less than 5 μmole/kg
inhibition of hepatic drug metabolizing enzyme systems compared to omeprazole [8]: weaker inhibitor
fasting serum gastrin levels [9]: significantly elevated
oral LD50 ([10]; in vivo, po): > 2,467 μmol/kg
intravenous LD50 ([10]; intravenous): 632 µmol/kg
intravenous LD50 ([11]; mice, intravenous): 975 µmol/kg
oral LD50 ([11]; mouse, in vivo, po): 1,893 μmol/kg

CC(C)NC[C@H](O)COc1cccc2ccccc12 [L-form of propranolol, propranolol]
potency relative to the D-enantiomer [12]: 100 times

COc1ccnc(C[S+]([O-])c2nc3ccc(OC(F)F)cc3[nH]2)c1OC (single isomer, unassigned; (+)) [(+) pantoprazole, (+) isomer of 5-(difluoromethoxy)-2-[[3,4-dimethoxy-2-pyridinyl)methyl]sulfinyl]-1H-benzimidazole]
PKa [13]: 8.2
